# Results taken from US20090156477A1, “Compositions and Methods for Regulating Inflammatory Responses” (Massachusetts Institute of Technology, priority 2005, published 2009).
# Entries after “also recorded” stand apart in the source; their conditions may differ.
# Legend:
# Caco-2 cells [1] = assay: Transepithelial resistance (TER) of Caco-2 monolayers; assay type: cell-based, human
# Protocol: (§1) Caco-2 cells were grown close to confluence, and T84 cells were grown to confluence. The apical chambers of transwell plates with 6.5 mm diameter and 3 μm pore size filters were pretreated with 50 μl of 45 μg/ml collagen IV in 60% ethanol 24 hours prior to plating and incubated overnight at room temperature. After reaching confluence, cells were washed with 20 ml PBS and treated with 3.5 ml trypsin-EDTA per 175 cm^2 flask for 20-60 min at 37° C. until cells detached. Cells were resuspended in 16.5 ml media appropriate to the cell type. Each apical chamber was supplemented with 82 μl cell solution. The basolateral chamber was filled with 1 ml propagation media. Filters were fed with new media every two days over the course of experiments.
# (§2) Caco-2 and T84 cells were allowed to grow on transwells to form monolayers. Monolayer formation was examined every other day by light microscopy as well as by transepithelial resistance (TER) measurements using an EVOM ohmmeter (World Precision Instruments, Sarasota, Fla.). After monolayer formation, cells were treated with 100 ng/ml FGF1, 100 ng/ml FGF2, 100 ng/ml FGF7 or an equivalent volume (10 μl) of PBS. TER measurements were made either after 72 hours or at each of the 30 minutes, 1 hour, 2 hours, 4 hours, 9 hours, 24 hours and 48 hours timepoints. To determine the effects of multiple additions of ligand, FGFs or PBS were added initially and again after 2 days, and TER measurements were made after 0, 2 and 5 days.
# (§3) To probe the mechanism by which various FGFs induced cell mediated effects, various media treatments were employed. Ammonium tetrathiomolybdate (TM) was added 24 hours prior to the addition of ligands to yield a final concentration of 200 μM, sufficient to prevent the release of FGF1 [3]. Similarly, sodium chlorate, which reduces cell HSPGs and the sulfation of associated HSGAGs, was added 24 hours prior to the addition of ligands to yield a final concentration of 50 mM [33,34]. Antibodies and kinase inhibitors were added immediately prior to ligands. Antibodies to FGF1, FGFR1 and FGFR3 were added at a 1:100 dilution. Kinase inhibitors were added to yield final concentrations of 50 μM LY294002, 20 μM PD98059, 1 μM SB203580. All experiments were performed in triplicate.
# Caco-2 cells were grown to just prior to confluency. The apical chambers of transwell plates with 6.5 mm diameter and 3 μm pore size filters were pretreated with 50 μl of 45 μg/ml mouse recombinant collagen IV (BD Biosciences, Bedford, Mass.) in 60% ethanol 24 hours prior to plating. Plates were incubated overnight at room temperature. Just prior to confluency, cells were washed with 20 ml phosphate buffered saline (PBS) and treated with 3.5 ml trypsin-EDTA per 175 cm^2 flask for 20-60 min at 37° C., until cells detached. Cells were resuspended in 16.5 ml media appropriate to the cell type. Each apical chamber was supplemented with 82 μl cell solution. The basolateral chamber was filled with 1 ml propagation media. Filters were fed with new media every two days over the course of experiments.
# Caco-2 cells were allowed to grow on transwells to form monolayers. Monolayer formation was examined every other day by light microscopy as well as by TER measurements using an EVOM ohmmeter (World Precision Instruments, Sarasota, Fla.). After monolayer formation, cells were treated with 100 ng/ml recombinant human FGF1 (Amgen, Thousand Oaks, Calif.), 100 ng/ml recombinant human FGF2 [1], 100 ng/ml recombinant human FGF7 (Sigma, St. Louis, Mo.), or an equivalent volume (10 μl) of PBS. TER measurements were made after each of 30 minutes, 1 hour, 2 hours, 4 hours, 9 hours, 24 hours and 48 hours.
# To probe the mechanism by which various FGFs induced cellular mediated effects, various media treatments were employed. TM was added 24 hours prior to the addition of ligands to yield a final concentration of 200 μM, sufficient to prevent the release of FGF1 [3]. […]
# T84 cells [2] = assay: Transepithelial resistance (TER) of T84 monolayers; assay type: cell-based, human; conditions: agent given before or with 100 ng/ml FGFs (TM 200 μM, sodium chlorate 50 mM, LY294002 50 μM, antibodies 1:100)
# Protocol: as §1, §2, §3
# Caco-2 cells [3] = assay: Caco-2 proliferation assay (whole cell number); assay type: cell-based, human; conditions: TM 200 μM, FGF1 added to TM treated cells
# Protocol: (§4) Caco-2 cells were grown to just prior to confluence, and T84 cells were grown to confluence. Each flask was washed with 20 ml PBS and treated with 3 ml trypsin-EDTA at 37° C. for 20-60 minutes until cells detached. Cells were centrifuged for 3 minutes at 195×g. The supernatant was aspirated, and the cells were resuspended in 10 ml media. The cell density was measured using an electronic cell counter, and the suspension was diluted to 50,000 cells/ml. The suspension was plated at 1 ml/well into 12-well tissue culture plates. After a 24 hour incubation in a 5% CO2, 37° C. humidified incubator, the media was aspirated, the wells were washed with serum free media, and the cells were supplemented with media containing 0.1% FBS. The wells were then supplemented with 10 μl PBS, 50 mM sodium chlorate, or 200 μM TM, and incubated for 24 hours. Subsequently, cells were supplemented with 100 ng/ml FGF1, FGF2, FGF7, or 10 μl PBS, and incubated for 72 hours. Wells were then washed twice with PBS and treated with 0.5 ml trypsin-EDTA/well and incubated at 37° C. until cells detached. Whole cell number was determined using an electronic cell counter. Data was averaged over three experiments, each consisting of four wells per condition.
# FGF1 [4] = assay: Immunohistochemistry for FGF1 in T84 cells; assay type: cell-based, human; conditions: 200 μM TM for 24 hours
# Protocol: (§5) To determine FGFR and FGF1 expression, Caco-2 cells were grown to just prior to confluence, and T84 cells were grown to confluence on collagen-coated glass slides. Cells were washed with PBS supplemented with 5% BSA. To stain for FGFR3, rabbit anti-human FGFR3 antibodies were added to cells at a 1:500 dilution and incubated for 1 hour. Cells were washed with PBS supplemented with 5% BSA, and FITC-conjugated goat anti-rabbit antibodies were added and incubated for 30 minutes. Cells were washed with BSA-PBS and examined using fluorescence microscopy. For FGF1 analysis, cells were treated with 200 μM TM or 10 μl PBS for 24 hours, formalin fixed, treated with goat anti-human FGF1 antibodies at a 1:200 dilution and incubated for 4 hours. Cells were washed with PBS supplemented with 5% BSA, and Texas red-conjugated donkey anti-goat antibodies were added and incubated for 1 hour. Cells were washed with BSA-PBS and examined using fluorescence microscopy.
# FGF1 [5] = assay: Immunohistochemistry for FGF1 in Caco-2 cells; assay type: cell-based, human; conditions: 200 μM TM for 24 hours
# Protocol: as §5
# T84 cells [6] = assay: T84 proliferation assay (whole cell number); assay type: cell-based, human; conditions: TM 200 μM, FGF1 added to TM treated cells
# Protocol: as §4
# [7] = biological target: FGFR3b expressed by Caco-2 and T84 cells (human) (UniProt P22607); assay: cell-based or functional assay
# Chain of UniProt P22607 (P22607 23-806): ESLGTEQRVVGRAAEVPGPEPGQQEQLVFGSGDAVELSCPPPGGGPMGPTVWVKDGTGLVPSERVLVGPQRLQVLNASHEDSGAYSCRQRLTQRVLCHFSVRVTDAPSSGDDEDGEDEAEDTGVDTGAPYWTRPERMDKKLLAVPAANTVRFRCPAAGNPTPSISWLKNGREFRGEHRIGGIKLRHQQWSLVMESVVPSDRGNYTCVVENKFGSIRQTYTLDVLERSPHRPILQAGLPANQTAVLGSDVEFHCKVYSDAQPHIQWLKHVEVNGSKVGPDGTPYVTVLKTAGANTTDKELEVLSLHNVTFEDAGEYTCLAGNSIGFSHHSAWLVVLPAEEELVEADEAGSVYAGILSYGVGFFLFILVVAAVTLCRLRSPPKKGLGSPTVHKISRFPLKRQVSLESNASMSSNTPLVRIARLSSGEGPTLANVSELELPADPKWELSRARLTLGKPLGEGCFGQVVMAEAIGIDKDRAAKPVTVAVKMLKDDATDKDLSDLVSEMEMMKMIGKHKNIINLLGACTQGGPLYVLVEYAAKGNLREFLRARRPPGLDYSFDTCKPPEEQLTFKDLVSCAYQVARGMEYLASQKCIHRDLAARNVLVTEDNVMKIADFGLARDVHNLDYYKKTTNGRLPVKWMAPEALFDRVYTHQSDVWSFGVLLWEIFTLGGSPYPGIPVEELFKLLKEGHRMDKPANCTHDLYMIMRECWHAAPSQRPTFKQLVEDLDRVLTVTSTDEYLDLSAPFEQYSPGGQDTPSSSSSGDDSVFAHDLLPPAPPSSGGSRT
# [8] = cell line not stated (Caco-2 and T84 cells studied), PD98059 20 μM, SB203580 1 μM, LY294002 50 μM, antibodies 1:100
# [9] = Caco-2 cells, agent given before or with 100 ng/ml FGFs (TM 200 μM, sodium chlorate 50 mM, LY294002 50 μM, PMA 100 ng/ml, antibodies 1:100)
molecule,measurement,setting,value
"COc1cccc(-c2cc(=O)c3ccccc3o2)c1N [PD98059, reference compound]",effect of added agent on FGF-induced reduction in TER,Caco-2 cells [1]; [8],failed to eliminate the ligand mediated inhibition of TER
"CCCCCCCCCCCCCC(=O)O[C@@H]1[C@@H](C)[C@@]2(O)[C@@H](C=C(CO)C[C@]3(O)C(=O)C(C)=C[C@@H]23)[C@@H]2C(C)(C)[C@]12OC(C)=O [PMA, phorbol 12-myristate 13-acetate, reference compound]",effect of added agent on FGF-induced reduction in TER,Caco-2 cells [1]; [9],"prevented FGF2 and FGF7 activity, but not that of FGF1"
"C[S+]([O-])c1ccc(-c2nc(-c3ccncc3)c(-c3ccc(F)cc3)[nH]2)cc1 (stereo not shown) [SB203580, reference compound]",effect of added agent on FGF-induced reduction in TER,Caco-2 cells [1]; [8],failed to eliminate the ligand mediated inhibition of TER
"[Na+].[O-][Cl+2]([O-])[O-] [Sodium chlorate, sodium chlorate, reference compound]",effect of added agent on FGF-induced reduction in TER,Caco-2 cells [1]; [9],eliminated the ability; also recorded: abrogated the ability
same,effect of added agent on FGF-induced reduction in TER,T84 cells [2],eliminated the ability
"[NH4+].[NH4+].[SH-].[SH-].[S]=[Mo]=[S] [TM, Ammonium tetrathiomolybdate, reference compound]",effect of added agent on proliferative effect of FGF2 and FGF7,Caco-2 cells [3],eliminated the proliferative effect of FGF2 and FGF7
same,distribution of FGF1,FGF1 [4],retaining FGF1 closer to the nucleus
same,distribution of FGF1,FGF1 [5],retaining FGF1 closer to the nucleus
same,effect of added agent on FGF-induced reduction in TER,Caco-2 cells [1]; [9],abrogated the reduction in TER induced by FGF2
same,effect of added agent on FGF-induced reduction in TER,T84 cells [2],prevented
same,effect of added agent on proliferative effect of FGF2 and FGF7,T84 cells [6],eliminated the proliferative effect of FGF2 and FGF7
"Boiled FGF1: FGF1 that was boiled, used as control in the TER test",reduction of TER (in words),Caco-2 cells [1]; cell line not stated (Caco-2 and T84 cells studied),did not reduce TER
Recombinant human FGF1 (from UniProt P05230 16-155) (ligand),"inhibition of increases in TER over three days, Caco-2 cells",[7],35.1%
same,"inhibition of increases in TER over three days, T84 cells",[7],30.1%
same,"reduction of TER at 48 hours, Caco-2 cells",[7],45.1%
same,"reduction of TER at 48 hours, T84 cells",[7],22.7%
